Source: patent US8029832B2, “Obesity and metabolic syndrome treatment with tanshinone derivatives which increase metabolic activity” (priority 2003, dated 2011)

Columns and labels:
AMPK = AMPK activity of double or triple combinations of tanshinone derivatives in muscle cells; assay type: cell-based; settings: combinations of the four tanshinone derivatives
Procedure: Using muscle cells, this example was carried out to confirm synergistic effects of AMPK activity with respect to the combination ratio between derivatives, which contained tanshinone I, tanshinone IIA, cryptotanshinone and 15,16-dihydrotanshinone I, as main ingredients. That is, we have attempted to confirm inter-complementary functions between derivatives according to gene expression as shown in Example 5 and thereby synergistic effects by any combination of tanshinone derivatives through AMPK activity.
The respective ingredients of tanshinone I, tanshinone IIA, cryptotanshinone and 15,16-dihydrotanshinone I were doubly or triply combined to prepare different compositions. AMPK activity of the prepared compositions and the AMPK activity of respective ingredients included in those compositions were compared to confirm synergistic effects. In addition, we have attempted to confirm AMPK activity with respect to changes in the combination ratio by varying the ratio between ingredients in the compositions, and to obtain synergistic effects of activity by any combination of tanshinone derivatives.

hepatocytes = settings: Planta Med. 2002, 68, 1077-1081; cited from earlier work
cardiac myocytes [1] = settings: Biochemical Pharmacology 64, 745-750 (2002); cited from earlier work
mitochondria = settings: Biochemical Pharmacology 65, 51-57, 2003; cited from earlier work
cardiac myocytes [2] = settings: Planta Med. 2002, 68, 1103-1107; cited from earlier work
cardiac fibroblasts = settings: Planta Med. 2002, 68, 1103-1107; cited from earlier work

15,16-Dihydrotanshinone I
enhancement effect on AMPK activity by combinational use of two or more of these compounds (AMPK): significantly increased

C[C@H]1COC2=C1C(=O)C(=O)c1c2ccc2c1CCCC2(C)C [cryptotanshinone]
enhancement effect on AMPK activity by combinational use of two or more of these compounds (AMPK): significantly increased

Cc1cccc2c3c(ccc12)C(=O)C1=C(OCC1C)C3=O (stereo not drawn) [dihydroisotanshinone I]
effect against menadione-induced cytotoxicity in hepatocytes (hepatocytes): hepatoprotective effects

Cc1c(S(=O)(=O)O)oc2c1C(=O)C(=O)c1c-2ccc2c1CCCC2(C)C [tanshinone IIA sulfonate]
hypertrophy of cardiac myocytes induced by angiotensin II (cardiac myocytes [1]): attenuates hypertrophy of cardiac myocytes induced by angiotensin II
electron-transfer reaction in mitochondria (mitochondria): facilitates an electron-transfer reaction in mitochondria

Cc1coc2c1C(=O)C(=O)c1c-2ccc2c1CCCC2(C)C [tanshinone IIA]
enhancement effect on AMPK activity by combinational use of two or more of these compounds (AMPK): significantly increased

Cc1cccc2c3c(ccc12)C(O)=C(C(C)CO)C(=O)C3=O (stereo not drawn) [tanshinone VI]
hypertrophy of cardiac myocytes (cardiac myocytes [2]): attenuates hypertrophy of cardiac myocytes
synthesis of collagen by cardiac fibroblasts (cardiac fibroblasts): inhibits synthesis of collagen by cardiac fibroblasts

tanshinone I
enhancement effect on AMPK activity by combinational use of two or more of these compounds (AMPK): significantly increased
